The values that follow come from publication PMC12016938, “A small molecule PKCε inhibitor reduces hyperalgesia induced by paclitaxel or opioid withdrawal” (JCI Insight, 2025).

Several values for one entry are separate records, joined by “and”; a condition that tells them apart may be missing. Equal entries are not always repeated. Entries after “also recorded” stand apart in the source; their conditions may differ. Where two headings read alike, the source gives them in different places.

A word on the inhibition: it is how much of the control response was suppressed. In general, IC50 refers to the concentration needed to halve the response being measured.

Assay [1] relates to PKCε-dependent mechanical hyperalgesia. Description: Hyperalgesia induced by the PKCε activator ψεRACK, Randall-Selitto paw pressure test. Conditions: for Force applied that led to paw withdrawal: one paw.
Experimental: Thirty minutes later, rats were administered vehicle (5 μL, intradermally) or CP612 (1 μg/5 μL, intradermally) (Figure 3). We measured nociceptive thresholds at the same site, at baseline, 30 minutes after the administration of ψεRACK (time 0) and 15, 30, and 60 minutes after the administration of vehicle or CP612.
Mechanical nociceptive thresholds in rats were quantified by the Randall-Selitto paw pressure test using an Ugo Basile Analgesy-Meter. This device applies a linearly increasing mechanical force to the dorsum or plantar region of the rat hind paw. The mechanical nociceptive threshold is defined as the force in grams at which a rat withdraws its paw. […] For studies testing nociceptive thresholds after the PKCε activator ψεRACK, or after the cancer chemotherapeutic drug paclitaxel, rats were placed into cylindrical acrylic restrainers for 40 minutes before starting each session. The restrainers had lateral ports to allow access to the hind paw, as previously described ([35]), and pain thresholds were measured by applying force to the dorsum of the hind paw. Prior to starting experiments, baseline mechanical nociceptive threshold was obtained as the mean of 2–3 readings on 1 hind paw in each rat.
Another assay deals with T1, PKCε (Homo sapiens, UniProt Q02156).
T1 sequence (Q02156 1-737): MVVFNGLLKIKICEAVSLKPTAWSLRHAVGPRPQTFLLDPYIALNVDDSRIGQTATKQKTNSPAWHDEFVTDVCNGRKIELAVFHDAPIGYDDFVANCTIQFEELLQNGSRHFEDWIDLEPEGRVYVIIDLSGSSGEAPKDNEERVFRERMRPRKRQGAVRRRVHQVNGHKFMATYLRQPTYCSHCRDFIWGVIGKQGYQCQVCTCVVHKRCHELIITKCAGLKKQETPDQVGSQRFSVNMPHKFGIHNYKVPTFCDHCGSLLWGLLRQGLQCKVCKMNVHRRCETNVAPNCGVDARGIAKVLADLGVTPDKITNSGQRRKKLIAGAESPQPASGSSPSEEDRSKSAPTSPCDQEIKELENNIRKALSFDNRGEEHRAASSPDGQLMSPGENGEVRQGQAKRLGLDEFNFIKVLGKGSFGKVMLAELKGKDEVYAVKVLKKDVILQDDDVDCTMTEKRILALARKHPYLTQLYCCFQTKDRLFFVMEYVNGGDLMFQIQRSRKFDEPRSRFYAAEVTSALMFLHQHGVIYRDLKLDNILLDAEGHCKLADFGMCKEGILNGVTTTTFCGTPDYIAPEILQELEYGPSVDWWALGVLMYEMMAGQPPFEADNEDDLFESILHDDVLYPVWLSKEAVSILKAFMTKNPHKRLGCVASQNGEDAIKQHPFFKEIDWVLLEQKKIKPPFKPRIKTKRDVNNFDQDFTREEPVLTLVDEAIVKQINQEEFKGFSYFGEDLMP
Nature of the assay: Lance-FRET kinase assay, PKCε. It is filed as biochemical. The arrangement: His; AVI; made in house; host or cells: Sf9 cells. As to the method:
Kinase assays. CP612 was assayed against His-AVI–tagged human PKCε (1 nM) produced in Sf9 cells, and ROCK1 (Carna Biosciences; 5 nM) using the Lance-FRET kinase assay system (PerkinElmer Revvity). Other human recombinant PKCs (SignalChem Biotech) were assayed in triplicate at the following concentrations: PKCβII 1.6 nM, PKCγ 500 pM, PKCδ 5 nM, PKCθ 500 pM, and PKCζ 500 pM. PKCs were incubated in a 15 μL reaction volume with kinase buffer (20 mM Tris-HCL [pH 7.4], 10 mM MgCl2, 0.25 mM EGTA, 0.1 mg/mL BSA, and 0.15% Triton X-100), 50 nM ULight-labeled CREBtide […] (PerkinElmer, TRF0107, Revvity), and test compound. Reactions were initiated by adding 2.5 μM ATP at 27°C and were terminated after 60 minutes with 10 μL of 2.5× Stop Solution/Detection Mix containing 20 mM EDTA and 4 nM LANCE Ultra Europium anti–phospho-[…] (Ala25Ser) peptide antibody (PerkinElmer, TRF0200, Revvity). After incubation at 27°C for another 60 minutes, phosphorylation was detected using a FlexStation 3 Microplate Reader (Molecular Devices) in LANCE TR-FRET mode (excitation = 340 nm, emission = 665 nm) and expressed as relative fluorescence units (RFU). The percentage of inhibition was calculated as: (signal without test compound − signal with test compound)/(signal without test compound − signal without ATP) × 100. The Z’ factor for this assay ranged between 0.72 and 0.86.
Kinase assays used 11-point concentration-response curves and results were analyzed by nonlinear regression using Prism 9 (GraphPad Software) to determine IC50 values. Other analyses were performed on Prism 9 and Statistica (Tibco Software). Scores for pain threshold, conditioned place preference, and self-administration were analyzed by ANOVA using the following factors. […] We used a Tukey’s test for post hoc comparisons across groups and Dunnett’s test for post hoc comparisons with own pain thresholds at baseline values in the pain studies. Somatic withdrawal scores were analyzed with a Kruskal-Wallis test due to the nonparametric nature of those data, followed by nonparametric post hoc comparisons according to Siegel and Castellan ([40]). A P value less than 0.05 was considered significant.

Regarding `N[C@H](CNC(=O)C1(c2ccc(Cl)cc2)CCCC1)c1ccc(C(=O)Nc2ccncc2)cc1` [CP612], the “Force applied that led to paw withdrawal” value in assay [1] (0min (30 min after ψεRACK, before CP612)) was 90 grams and 100 grams and 96.7 grams; in assay [1] (5min after CP612 1µg/5µL intradermally), 120 grams and 130 grams and 115 grams and 105 grams; in assay [1] (10min after CP612 1µg/5µL intradermally), 100 grams and 110 grams and 130 grams and 115 grams and 120 grams and 135 grams; in assay [1] (15min after CP612 1µg/5µL intradermally) it was 90 grams and 125 grams and 130 grams and 110 grams and 115 grams and 100 grams; in assay [1] (30min after CP612 1µg/5µL intradermally), 120 grams and 123.3 grams and 125 grams and 115 grams; in assay [1] (60min after CP612 1µg/5µL intradermally) it was 105 grams and 110 grams and 115 grams and 130 grams and 120 grams. In assay [1] (baseline (before ψεRACK and CP612)), the “Force applied that led to paw withdrawal” value was 130 grams and 120 grams and 125 grams. For the same compound, the “Effect on ψεRACK-induced hyperalgesia” value in assay [1] (male rats, CP612 1 μg/5 μL intradermally 30 min after ψεRACK, up to 60 minutes) is “reduced; also recorded: near-complete reversal; also recorded: attenuated”. Also, the inhibition at 0.03 µM on PKCε (30 nM CP612, read-out: Inhibition of novel PKCs (PKCε)) is > 50%. The “Relative potency within the nPKC subfamily” value at PKCε (Figure 1B) is recorded as “most potent”. For the same compound, the IC50 on PKCε (Figure 1B PKC isozyme panel, read-out: IC50 PKCε) stood at 2.03 nM; at PKCε (mean of all runs (count 42 CP612; 38 CIDD-0072424), 2.5 μM ATP, read-out: IC50 (nM) [Enzyme: PKCε], mean) it was 1.9 ± 0.4 nM. The “ROCK1/PKCε ratio, mean” value on PKCε (mean of ratios of all runs) is listed as 54.8.
